Tests used:
[1] = tested on: Influenza A virus; test: In vitro antiinfluenza activity against influenza virus A strain; format: functional, organism-based
[2] = tested on: Influenza B virus; test: In vitro antiinfluenza activity against influenza virus B strain; format: functional, organism-based
[3] = Lethal dose against mice upon intraperitoneal administration; format: toxicity; conditions: mouse, in vivo, ip
[4] = Lethal dose against mice upon oral administration; format: toxicity; conditions: mouse, in vivo

| SMILES | IC50 [1] [µM] | IC50 [2] [µM] | LD50 [3] [mg/kg] | LD50 [4] [mg/kg] |
| --- | --- | --- | --- | --- |
| Cc1nc2nccc-2c(NCCc2cccc(N(C)C)c2)[nH]1 | 55 |  |  |  |
| Cc1nc(NCCc2cccc(N3CCCCC3)c2)c2cc[nH]c2n1 | 28.6 |  |  |  |
| NC12CC3CC(CC(C3)C1)C2 [AMANTADINE] | 1.25 |  |  |  |
| Cc1nc2nccc-2c(NCc2cccc(N(C)C)c2)[nH]1 | 18 | < 100 |  |  |
| Cc1nc(NCc2cccc(N3CCCCC3)c2)c2cc[nH]c2n1 | 2.3 | 5.1 | > 500 | > 500 |
| Cc1nc(NCCc2cccc(N3CCCC3)c2)c2cc[nH]c2n1 | 23.9 |  |  |  |
| Cc1nc(NCCc2ccccc2)c2cc[nH]c2n1 | 38.4 |  |  |  |
| Cc1nc(NCc2ccccc2)c2cc[nH]c2n1 [ROLODINE] | > 100 |  |  |  |
| Cc1nc(NCc2cccc(N3CCCC3)c2)c2cc[nH]c2n1 | 4.8 | 6.4 |  |  |

Reference: ChEMBL document CHEMBL1128988, “The antiinfluenza activity of pyrrolo[2,3-d]pyrimidines” (Bioorg Med Chem Lett, 1996)
